Drawing on paper PMC7169845, “Synthesis and Bioactivity of Phthalimide Analogs as Potential Drugs to Treat Schistosomiasis, a Neglected Disease of Poverty” (Pharmaceuticals, 2020), this text covers melting point for 30 molecules.

The structures appear in SMILES notation.

As for `CC(C)CC(c1nc2ccccc2n1Cc1cn(-c2ccc(C(F)(F)F)cc2)nn1)N1C(=O)c2ccccc2C1=O` (stereo not drawn) [6m, 2-(3-Methyl-1-(1-((1-(4-(trifluoromethyl)phenyl)-1H-1,2,3-triazol-4-yl)methyl)-1H-benzo[d]imidazol-2-yl)butyl)isoindoline-1,3-dione], the melting point (in general, the temperature of the solid-liquid transition) was 216 to 218 °C.

As to `CC(c1nc2ccccc2n1Cc1c[nH]nn1)N1C(=O)c2ccccc2C1=O` (stereo not drawn) [6g’, 2-(1-(1-((1H-1,2,3-Triazol-4-yl)methyl)-1H-benzo[d]imidazol-2-yl)ethyl)isoindoline-1,3-dione], the melting point lay within 97 to 99 °C.

For `Cc1ccc2c(c1)C(=O)N(C(C)c1nc3ccccc3n1Cc1cn(-c3ccc(F)cc3)nn1)C2=O` (stereo not drawn) [6h’, 2-(1-(1-((1-(4-Fluorophenyl)-1H-1,2,3-triazol-4-yl)methyl)-1H-benzo[d]imidazol-2-yl)ethyl)-5-methylisoindoline-1,3-dione], the melting point was 222 to 224 °C.

Turning to `CC(C)C(c1nc2ccccc2n1Cc1cn(-c2c(F)cccc2F)nn1)N1C(=O)c2ccccc2C1=O` (stereo not drawn) [6u’, 2-(1-(1-((1-(2,6-Difluorophenyl)-1H-1,2,3-triazol-4-yl)methyl)-1H-benzo[d]imidazol-2-yl)-2-methylpropyl)isoindoline-1,3-dione], the melting point was 91 to 93 °C.

Molecule `Cc1ccc2c(c1)C(=O)N(C(CC(C)C)c1nc3ccccc3n1Cc1c[nH]nn1)C2=O` (stereo not drawn) [6c, 2-(1-(1-((1H-1,2,3-Triazol-4-yl)methyl)-1H-benzo[d]imidazol-2-yl)-3-methylbutyl)-5-methylisoindoline-1,3-dione] returned a melting point of 150 to 152 °C.

In turn, `CC(C)CC(c1nc2ccccc2n1Cc1cn(-c2ccccc2F)nn1)N1C(=O)c2ccccc2C1=O` (stereo not drawn) [6n, 2-(1-(1-((1-(2-Fluorophenyl)-1H-1,2,3-triazol-4-yl)methyl)-1H-benzo[d]imidazol-2-yl)-3-methylbutyl)isoindoline-1,3-dione] came in with a melting point of 107 to 109 °C.

As for `CC(C)CC(c1nc2ccccc2n1Cc1cn(-c2c(F)c(F)c(F)c(F)c2F)nn1)N1C(=O)c2ccccc2C1=O` (stereo not drawn) [6l, 2-(3-Methyl-1-(1-((1-(perfluorophenyl)-1H-1,2,3-triazol-4-yl)methyl)-1H-benzo[d]imidazol-2-yl)butyl)isoindoline-1,3-dione], the melting point lay in the range of 100 to 102 °C.

Take `CC(C)CC(c1nc2ccccc2n1Cc1cn(-c2c(F)cccc2F)nn1)N1C(=O)c2ccccc2C1=O` (stereo not drawn) [6p, 2-(1-(1-((1-(2,6-Difluorophenyl)-1H-1,2,3-triazol-4-yl)methyl)-1H-benzo[d]imidazol-2-yl)-3-methylbutyl)isoindoline-1,3-dione]: the melting point fell in the range of 198 to 200 °C.

`CCC(C)C(c1nc2ccccc2n1Cc1cn(-c2c(F)c(F)c(F)c(F)c2F)nn1)N1C(=O)c2ccc(C)cc2C1=O` (stereo not drawn) [6s, 5-Methyl-2-(2-methyl-1-(1-((1-(perfluorophenyl)-1H-1,2,3-triazol-4-yl)methyl)-1H-benzo[d]imidazol-2-yl)butyl)isoindoline-1,3-dione] showed a melting point of 196 to 198 °C.

As to `CC(c1nc2ccccc2n1Cc1cn(-c2c(F)cccc2F)nn1)N1C(=O)c2ccccc2C1=O` (stereo not drawn) [6f’, 2-(1-(1-((1-(2,6-Difluorophenyl)-1H-1,2,3-triazol-4-yl)methyl)-1H-benzo[d]imidazol-2-yl)ethyl)isoindoline-1,3-dione], the melting point fell in the range of 94 to 96 °C.

Consider `Cc1ccc2c(c1)C(=O)N(C(CC(C)C)c1nc3ccccc3n1Cc1cn(-c3c(F)c(F)c(F)c(F)c3F)nn1)C2=O` (stereo not drawn) [6d, 5-Methyl-2-(3-methyl-1-(1-((1-(perfluorophenyl)-1H-1,2,3-triazol-4-yl)methyl)-1H-benzo[d]imidazol-2-yl)butyl)isoindoline-1,3-dione], for which the melting point lay within 128 to 130 °C.

As to `Cc1ccc2c(c1)C(=O)N(C(C)c1nc3ccccc3n1Cc1cn(-c3ccccc3F)nn1)C2=O` (stereo not drawn) [6o’, 2-(1-(1-((1-(2-Fluorophenyl)-1H-1,2,3-triazol-4-yl)methyl)-1H-benzo[d]imidazol-2-yl)ethyl)-5-methylisoindoline-1,3-dione], the melting point is 185 to 187 °C.

With `Cc1ccc(-n2cc(Cn3c(C(C)N4C(=O)c5ccc(C)cc5C4=O)nc4ccccc43)nn2)cc1` (stereo not drawn) [6i’, 5-Methyl-2-(1-(1-((1-(p-tolyl)-1H-1,2,3-triazol-4-yl)methyl)-1H-benzo[d]imidazol-2-yl)ethyl)isoindoline-1,3-dione], the melting point lay within 216 to 218 °C.

`Cc1ccc2c(c1)C(=O)N(C(C)c1nc3ccccc3n1Cc1cn(-c3c(F)cccc3F)nn1)C2=O` (stereo not drawn) [6q’, 2-(1-(1-((1-(2,6-Difluorophenyl)-1H-1,2,3-triazol-4-yl)methyl)-1H-benzo[d]imidazol-2-yl)ethyl)-5-methylisoindoline-1,3-dione] came in with a melting point of 166 to 168 °C.

In the case of `CC(C)C(c1nc2ccccc2n1Cc1cn(-c2c(F)c(F)c(F)c(F)c2F)nn1)N1C(=O)c2ccccc2C1=O` (stereo not drawn) [6r’, 2-(2-Methyl-1-(1-((1-(perfluorophenyl)-1H-1,2,3-triazol-4-yl)methyl)-1H-benzo[d]imidazol-2-yl)propyl)isoindoline-1,3-dione], the melting point was in the range of 170 to 172 °C.

Molecule `Cc1ccc2c(c1)C(=O)N(C(CC(C)C)c1nc3ccccc3n1Cc1cn(-c3c(F)cccc3F)nn1)C2=O` (stereo not drawn) [6k, 2-(1-(1-((1-(2,6-Difluorophenyl)-1H-1,2,3-triazol-4-yl)methyl)-1H-benzo[d]imidazol-2-yl)-3-methylbutyl)-5-methylisoindoline-1,3-dione] gave a melting point of 71 to 73 °C.

The molecule `Cc1ccc2c(c1)C(=O)N(C(C)c1nc3ccccc3n1Cc1cn(-c3ccc(F)cc3F)nn1)C2=O` (stereo not drawn) [6p’, 2-(1-(1-((1-(2,4-Difluorophenyl)-1H-1,2,3-triazol-4-yl)methyl)-1H-benzo[d]imidazol-2-yl)ethyl)-5-methylisoindoline-1,3-dione] returned a melting point of 206 to 208 °C.

`CC(C)C(c1nc2ccccc2n1Cc1cn(-c2ccccc2F)nn1)N1C(=O)c2ccccc2C1=O` (stereo not drawn) [6s’, 2-(1-(1-((1-(2-Fluorophenyl)-1H-1,2,3-triazol-4-yl)methyl)-1H-benzo[d]imidazol-2-yl)-2-methylpropyl)isoindoline-1,3-dione]: the melting point lay within 115 to 117 °C.

`CC(c1nc2ccccc2n1Cc1cn(-c2ccc(F)cc2F)nn1)N1C(=O)c2ccccc2C1=O` (stereo not drawn) [6d’, 2-(1-(1-((1-(2,4-Difluorophenyl)-1H-1,2,3-triazol-4-yl)methyl)-1H-benzo[d]imidazol-2-yl)ethyl)isoindoline-1,3-dione] showed a melting point of 195 to 197 °C.

`Cc1ccc2c(c1)C(=O)N(C(CC(C)C)c1nc3ccccc3n1Cc1cn(-c3ccccc3F)nn1)C2=O` (stereo not drawn) [6i, 2-(1-(1-((1-(2-Fluorophenyl)-1H-1,2,3-triazol-4-yl)methyl)-1H-benzo[d]imidazol-2-yl)-3-methylbutyl)-5-methylisoindoline-1,3-dione] had a melting point of 138 to 140 °C.

`Cc1ccc(-n2cc(Cn3c(C(CC(C)C)N4C(=O)c5ccc(C)cc5C4=O)nc4ccccc43)nn2)cc1` (stereo not drawn) [6b, 5-Methyl-2-(3-methyl-1-(1-((1-(p-tolyl)-1H-1,2,3-triazol-4-yl)methyl)-1H-benzo[d]imidazol-2-yl)butyl)isoindoline-1,3-dione]: the melting point lay within 160 to 162 °C.

Molecule `COc1ccc(-n2cc(Cn3c(C(CC(C)C)N4C(=O)c5ccc(C)cc5C4=O)nc4ccccc43)nn2)cc1` (stereo not drawn) [6h, 2-(1-(1-((1-(4-Methoxyphenyl)-1H-1,2,3-triazol-4-yl)methyl)-1H-benzo[d]imidazol-2-yl)-3-methylbutyl)-5-methylisoindoline-1,3-dione] had a melting point of 101 to 103 °C.

In the case of `Cc1ccc2c(c1)C(=O)N(C(C)c1nc3ccccc3n1Cc1cn(Cc3ccccc3)nn1)C2=O` (stereo not drawn) [6m’, 2-(1-(1-((1-Benzyl-1H-1,2,3-triazol-4-yl)methyl)-1H-benzo[d]imidazol-2-yl)ethyl)-5-methylisoindoline-1,3-dione], the melting point lay in the range of 142 to 144 °C.

In turn, `Cc1ccc2c(c1)C(=O)N(C(CC(C)C)c1nc3ccccc3n1Cc1cn(-c3ccc(F)cc3F)nn1)C2=O` (stereo not drawn) [6j, 2-(1-(1-((1-(2,4-Difluorophenyl)-1H-1,2,3-triazol-4-yl)methyl)-1H-benzo[d]imidazol-2-yl)-3-methylbutyl)-5-methylisoindoline-1,3-dione] yielded a melting point of 72 to 74 °C.

The molecule `Cc1ccc2c(c1)C(=O)N(C(CC(C)C)c1nc3ccccc3n1Cc1cn(-c3ccc(C(F)(F)F)cc3)nn1)C2=O` (stereo not drawn) [6e, 5-Methyl-2-(3-methyl-1-(1-((1-(4-(trifluoromethyl)phenyl)-1H-1,2,3-triazol-4-yl)methyl)-1H-benzo[d]imidazol-2-yl)butyl)isoindoline-1,3-dione] returned a melting point of 218 to 220 °C.

`CCC(C)C(c1nc2ccccc2n1Cc1cn(-c2ccc(F)cc2F)nn1)N1C(=O)c2ccc(C)cc2C1=O` (stereo not drawn) [6r, 2-(1-(1-((1-(2,4-Difluorophenyl)-1H-1,2,3-triazol-4-yl)methyl)-1H-benzo[d]imidazol-2-yl)-2-methylbutyl)-5-methylisoindoline-1,3-dione] displayed a melting point of 89 to 91 °C.

Consider `CC(c1nc2ccccc2n1Cc1cn(-c2c(F)c(F)c(F)c(F)c2F)nn1)N1C(=O)c2ccccc2C1=O` (stereo not drawn) [6b’, 2-(1-(1-((1-(Perfluorophenyl)-1H-1,2,3-triazol-4-yl)methyl)-1H-benzo[d]imidazol-2-yl)ethyl)isoindoline-1,3-dione], for which the melting point lay in the range of 215 to 217 °C.

Regarding `CC(c1nc2ccccc2n1Cc1cn(-c2ccccc2)nn1)N1C(=O)c2ccccc2C1=O` (stereo not drawn) [6a’, 2-(1-(1-((1-Phenyl-1H-1,2,3-triazol-4-yl)methyl)-1H-benzo[d]imidazol-2-yl)ethyl)isoindoline-1,3-dione], the melting point fell in the range of 187 to 189 °C.

Regarding `CC(c1nc2ccccc2n1Cc1cn(-c2ccccc2F)nn1)N1C(=O)c2ccccc2C1=O` (stereo not drawn) [6c’, 2-(1-(1-((1-(2-Fluorophenyl)-1H-1,2,3-triazol-4-yl)methyl)-1H-benzo[d]imidazol-2-yl)ethyl)isoindoline-1,3-dione], the melting point lay within 186 to 188 °C.

Turning to `Cc1ccc2c(c1)C(=O)N(C(C)c1nc3ccccc3n1Cc1cn(-c3ccncc3)nn1)C2=O` (stereo not drawn) [6n’, 5-Methyl-2-(1-(1-((1-(pyridin-4-yl)-1H-1,2,3-triazol-4-yl)methyl)-1H-benzo[d]imidazol-2-yl)ethyl)isoindoline-1,3-dione], the melting point fell in the range of 236 to 238 °C.
